Experimental data taken from US20230096766A1, “AMINO ACID HAVING FUNCTIONAL GROUP CAPABLE OF INTERMOLECULAR HYDROGEN BONDING, PEPTIDE COMPOUND CONTAINING SAME AND METHOD FOR PRODUCTION THEREOF” (Chugai Seiyaku Kabushiki Kaisha, priority 2018, published 2023).
*1 amine or outer side, *2 acyl side, *3 side chain or, on linkers, in order; H or OH if unused. Where a SMILES comes first, the peptide text is derived from it. Bridges are numbered along the chain shown (N, C = ends). [ ]: non-standard residue; d: D form. The star is where a group is joined. X19 = CC(C)C[C@H](NN(C)[C@H](Cc1ccccc1)N(C)[*:1])C(=O)[*:2]; Tyr(3-OMe) = COc1cc(C[C@H](N)C(=O)O)ccc1O; NMeF = CN[C@@H](Cc1ccccc1)C(=O)O; NMeGABA = CN(CCCC(=O)[*:2])[*:1]; NMeL = CN[C@@H](CC(C)C)C(=O)O; NMeAbu = CC[C@H](NC)C(=O)O; Piperidide = C1CCN(*)CC1; NBuGly = CCCCNCC(=O)O; Sar = CNCC(=O)O; tBu = CC(C)(C)*

Assay: in vitro
Details: human, Caco-2, Caco-2 (cm/sec)

Structure (SMILES) | Papp [×10⁻⁶ cm/s]
CC[C@H]1C(=O)N[C@@H](Cc2ccc(O)c(OC)c2)C(=O)N(C)[C@@H](CC(C)C)C(=O)N(C)[C@@H](CC(C)C)C(=O)N[C@@H](C(C)C)C(=O)N(C)[C@@H](Cc2ccccc2)C(=O)N(C)[C@@H](CC(C)C)C(=O)N[C@@H]([C@@H](C)O)C(=O)N(C)CC(=O)N(C)[C@@H](CC(C)C)C(=O)N[C@H](C(=O)N2CCCCC2)CC(=O)N1C [Compound E06] ([NMeAbu][Tyr(3-OMe)][NMeL][NMeL]V[NMeF][NMeL]T[Sar][NMeL]D-Piperidide; lactam N-11) | 0.97
CCCCN1CC(=O)N(C)[C@@H](Cc2ccccc2)C(=O)N(C)[C@@H](CC(C)C)C(=O)N[C@@H](CC(C)C)C(=O)N(C)[C@@H](CC(C)C)C(=O)N[C@H](C(=O)N2CCCCC2)CC(=O)N(C)CC(=O)N(C)[C@@H](CC(C)C)C(=O)N[C@@H](Cc2ccc(O)c(OC)c2)C(=O)N(C)[C@@H](CC)C(=O)N[C@@H]([C@@H](C)O)C1=O [Compound E07] ([Sar][NMeL][Tyr(3-OMe)][NMeAbu]T[NBuGly][NMeF][NMeL]L[NMeL]D-Piperidide; lactam N-11) | 1.1
CCCCN1CC(=O)N(C)[C@@H](Cc2ccccc2)C(=O)N(C)[C@@H](CC(C)C)C(=O)N[C@@H](Cc2ccc(O)c(OC)c2)C(=O)N(C)[C@@H](CC(C)C)C(=O)N[C@H](C(=O)N2CCCCC2)CC(=O)N(C)CC(=O)N(C)[C@@H](CC(C)C)C(=O)N[C@@H]([C@@H](C)CC)C(=O)N(C)[C@@H](CC(C)C)C(=O)N[C@@H]([C@@H](C)O)C1=O [Compound E08] ([Sar][NMeL]I[NMeL]T[NBuGly][NMeF][NMeL][Tyr(3-OMe)][NMeL]D-Piperidide; lactam N-11) | 0.12
CC(C)C[C@@H]1NN(C)[C@H](Cc2ccccc2)N(C)C(=O)[C@@H](C(C)C)NC(=O)C[C@@H](C(=O)N2CCCCC2)NC(=O)[C@H](CC(C)C)N(C)C(=O)[C@H](CC(C)C)N(C)C(=O)[C@H](Cc2ccc(O)cc2)NC(=O)[C@H](CC(C)C)N(C)C(=O)CN(C)C(=O)[C@H]([C@@H](C)O)NC(=O)[C@H](CC(C)C)N(C)C1=O [Compound F01] ([dV][X19][NMeL]T[Sar][NMeL]Y[NMeL][NMeL]D-Piperidide; lactam N-10) | 0.32
CCCCN1CC(=O)N(C)[C@@H](CC(C)C)C(=O)N[C@@H](COC(C)(C)C)C(=O)N(C)[C@@H](CC(C)C)C(=O)N(C)[C@@H](CC)C(=O)N[C@H](C(=O)N2CCCCC2)CC(=O)N[C@H](CC(C)C)C(=O)N(C)[C@@H](Cc2ccccc2)C(=O)N[C@@H](Cc2ccc(O)cc2)C(=O)N(C)[C@@H](CC(C)C)C(=O)N[C@@H]([C@@H](C)O)C1=O [Compound F02] ([dL][NMeF]Y[NMeL]T[NBuGly][NMeL]S(tBu)[NMeL][NMeAbu]D-Piperidide; lactam N-11) | 0.04
CC[C@H](C)[C@@H]1NC(=O)[C@H](CC(C)C)N(C)C(=O)CCCN(C)C(=O)C[C@@H](C(=O)N2CCCCC2)NC(=O)[C@H](CC(C)C)N(C)C(=O)[C@H](CC(C)C)N(C)C(=O)[C@H]([C@@H](C)O)NC(=O)[C@H](CC(C)C)N(C)C(=O)[C@H](Cc2ccc(O)cc2)NC(=O)[C@H](CC(C)C)N(C)C(=O)[C@H](Cc2ccccc2)N(C)C1=O [Compound F03] ([NMeGABA][NMeL]I[NMeF][NMeL]Y[NMeL]T[NMeL][NMeL]D-Piperidide; lactam N-11) | 0.13
CC(C)C[C@H]1C(=O)N[C@@H](Cc2ccc(O)cc2)C(=O)N(C)[C@@H](CC(C)C)C(=O)N(C)[C@@H](Cc2ccccc2)C(=O)N[C@@H](COC(C)(C)C)C(=O)N(C)[C@@H](CC(C)C)C(=O)N[C@@H]([C@@H](C)O)C(=O)N(C)[C@@H](CC(C)C)C(=O)N(C)[C@@H](CC(C)C)C(=O)N[C@H](C(=O)N2CCCCC2)CC(=O)N(C)CCCC(=O)N1C [Compound F04] ([NMeGABA][NMeL]Y[NMeL][NMeF]S(tBu)[NMeL]T[NMeL][NMeL]D-Piperidide; lactam N-11) | 0.13
